We go through four compounds from patent US9526680B2, “Method for searching for malodor control agent, malodor control agent, and malodor control method” (Kao Corporation, priority 2010, dated 2016).

Entries after “also recorded” stand apart in the source; their conditions may differ.

The target of one experiment is T1, OR2W1 (Homo sapiens, UniProt Q9Y3N9).
T1 construct: expressed in transfected cells; host or cells: HEK293
T1 sequence (Q9Y3N9 1-320): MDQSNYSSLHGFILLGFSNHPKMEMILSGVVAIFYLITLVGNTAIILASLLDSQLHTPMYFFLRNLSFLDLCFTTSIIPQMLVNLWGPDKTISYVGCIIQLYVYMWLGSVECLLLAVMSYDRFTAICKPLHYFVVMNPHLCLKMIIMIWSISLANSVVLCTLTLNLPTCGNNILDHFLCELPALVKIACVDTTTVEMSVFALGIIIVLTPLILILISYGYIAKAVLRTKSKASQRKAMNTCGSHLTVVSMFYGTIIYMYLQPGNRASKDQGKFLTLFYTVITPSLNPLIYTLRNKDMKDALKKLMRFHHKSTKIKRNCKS
Kind of experiment: Luciferase reporter gene assay, OR2W1 expressed in HEK293 cells. Type of experiment: cell-based. To be noted: fold increase of luciferase emission; 1 mM hexanoic acid or 300 μM nonanoic acid, or concentration series up to 1000 μM. The protocol: (§1) Cloning of human olfactory receptors was performed based on the sequence information registered in GenBank, through PCR with human genomic DNA female (G1521: Promega) as a template. Each of the genes amplified through PCR was inserted into a pENTR vector (Invitrogen) according to an instruction manual. Then, the gene-inserted vector was digested with NotI and AscI, and the obtained fragments were inserted into NotI and AscI sites located downstream of the Flag-Rho tag sequence in the pME18S vector.
(§2) Each of the 350 types of human olfactory receptors was expressed in HEK293 cells. A reaction solution having a composition shown in Table 2 was prepared on a clean bench, and left to stand for 15 minutes. The solution was dispensed to each well of a 96-well plate (BD). Subsequently, […] cells (100 μL, 3×10^5 cells/cm^2) were seeded in each well and cultured for 24 hours in an incubator at 37° C. and under 5% CO2 conditions.
(§3) The olfactory receptor expressed in HEK293 cell was conjugated with cell-intrinsic Gas to activate adenylate cyclase, and thereby the level of intracellular cAMP was increased. For the measurement of the response to odor in this study, the luciferase reporter gene assay was used, in which an increase in the amount of intracellular cAMP was monitored by using the emission value originating from firefly luciferase gene (fluc2P-CRE-hygro) as an indicator. Furthermore, a gene product obtained by fusing renilla luciferase gene in the downstream of CMV promoter (hRluc-CMV) was simultaneously introduced, and this was used as an internal standard for correcting an error in the transgenesis efficiency or the number of cells. The medium was removed from the culture prepared in the above-described section 3) by using a Pipetman, and 75 μl of a solution containing an odor substance (1 mM hexanoic acid or 300 μM nonanoic acid) prepared in CD293 medium (Invitrogen) was added thereto. The cells were cultured for 4 hours in a CO2 incubator, and the luciferase gene was sufficiently expressed in the cells. For the measurement of luciferase activity, the measurement was carried out by using a Dual-Glo™ luciferase assay system (Promega) according to the operation manual of the product. A value calculated by dividing the emission value, derived from a firefly luciferase induced by the stimulation with an odor substance, by the emission value in cells that were not-stimulated with an odor substance, was designated as a fold increase, and used as an index of response intensity.
(§4) OR2W1, OR10A6, OR51E1, OR51I2, and OR51L1 were respectively expressed in HEK293 cells by the same method as that used in Example 1, and a luciferase assay was carried out. In the luciferase assay, hexanoic acid was used as the odorous substance, and test substances were added together with hexanoic acid. The response of the olfactory receptors to hexanoic acid was measured, and a decrease in the receptor response to the addition of test substances was evaluated.
(§5) The inhibition ratios of the receptor response to test substances were calculated as follows. The emission value (Y) obtained from the cells in which the same receptors were introduced but no odor stimulation was conducted, was subtracted from the emission value derived from firefly luciferase (X) induced by odor stimulation with hexanoic acid alone. Similarly, the emission value (Y) obtained from the cells in which no odor stimulation was conducted, was subtracted from the emission value (Z) caused by stimulation with a mixture of hexanoic acid and a test substance. By the following calculation formula, the inhibitory activity of the test substance to receptor response was calculated based on the increment of the emission value (X−Y) caused by stimulation of hexanoic acid alone. Multiple independent experiments were performed in duplicate, and the average of each experiment was obtained. Inhibition ratio (%)={1−(Z−Y)/(X−Y)}×100 […]

For a further experiment, the target named is T2, OR51E1 (Homo sapiens, UniProt Q8TCB6).
T2 construct: expressed in transfected cells; host or cells: HEK293
T2 sequence (Q8TCB6 1-318): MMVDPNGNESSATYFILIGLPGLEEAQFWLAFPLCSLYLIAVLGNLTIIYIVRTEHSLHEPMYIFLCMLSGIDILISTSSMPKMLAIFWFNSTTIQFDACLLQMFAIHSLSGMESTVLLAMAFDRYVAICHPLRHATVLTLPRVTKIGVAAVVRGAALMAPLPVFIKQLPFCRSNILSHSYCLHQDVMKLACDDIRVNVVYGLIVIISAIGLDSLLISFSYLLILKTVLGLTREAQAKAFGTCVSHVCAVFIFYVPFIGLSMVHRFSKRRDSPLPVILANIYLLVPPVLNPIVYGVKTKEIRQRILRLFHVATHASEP
Kind of experiment: Luciferase reporter gene assay, OR51E1 expressed in HEK293 cells. In kind it is cell-based. To be noted: fold increase of luciferase emission; 1 mM hexanoic acid or 300 μM nonanoic acid, or concentration series up to 1000 μM. The protocol: as §1, §2, §3, §4, §5
On the technique in general: A reporter such as luciferase makes a cellular process visible.

The target of another experiment is T3, OR51L1 (Homo sapiens, UniProt Q8NGJ5).
T3 construct: expressed in transfected cells; host or cells: HEK293
T3 sequence (Q8NGJ5 1-315): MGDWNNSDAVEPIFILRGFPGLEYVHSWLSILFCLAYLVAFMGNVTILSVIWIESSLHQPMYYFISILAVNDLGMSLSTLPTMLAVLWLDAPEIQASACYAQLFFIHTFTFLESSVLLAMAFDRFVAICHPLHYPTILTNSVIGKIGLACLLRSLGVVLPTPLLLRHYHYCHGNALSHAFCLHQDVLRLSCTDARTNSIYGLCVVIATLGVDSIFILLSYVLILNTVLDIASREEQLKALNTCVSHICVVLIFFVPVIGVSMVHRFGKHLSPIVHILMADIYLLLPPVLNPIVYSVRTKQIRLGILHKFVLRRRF
Kind of experiment: Luciferase reporter gene assay, OR51L1 expressed in HEK293 cells. Type of experiment: cell-based. To be noted: fold increase of luciferase emission; 1 mM hexanoic acid or 300 μM nonanoic acid, or concentration series up to 1000 μM. The method, then: as §1, §2, §3, §4, §5

For another experiment, the target named is T4, OR51I2 (Homo sapiens, UniProt Q9H344).
T4 construct: expressed in transfected cells; host or cells: HEK293
T4 sequence (Q9H344 1-312): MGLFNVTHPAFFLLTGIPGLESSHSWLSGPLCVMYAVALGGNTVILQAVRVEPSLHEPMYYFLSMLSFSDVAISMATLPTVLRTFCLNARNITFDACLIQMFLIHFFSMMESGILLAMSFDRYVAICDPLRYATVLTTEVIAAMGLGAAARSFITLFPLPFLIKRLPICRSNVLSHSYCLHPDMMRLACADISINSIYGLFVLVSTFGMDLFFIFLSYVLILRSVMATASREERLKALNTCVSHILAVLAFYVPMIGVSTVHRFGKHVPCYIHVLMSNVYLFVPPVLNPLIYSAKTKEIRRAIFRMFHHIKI
Put plainly: Luciferase reporter gene assay, OR51I2 expressed in HEK293 cells. In kind it is cell-based. To be noted: fold increase of luciferase emission; 1 mM hexanoic acid or 300 μM nonanoic acid, or concentration series up to 1000 μM. The protocol:
as §1, §2, §3, §4, §5

The target in a further experiment is T5, OR10A6 (Homo sapiens, UniProt Q8NH74).
T5 construct: expressed in transfected cells; host or cells: HEK293
T5 sequence (Q8NH74 1-314): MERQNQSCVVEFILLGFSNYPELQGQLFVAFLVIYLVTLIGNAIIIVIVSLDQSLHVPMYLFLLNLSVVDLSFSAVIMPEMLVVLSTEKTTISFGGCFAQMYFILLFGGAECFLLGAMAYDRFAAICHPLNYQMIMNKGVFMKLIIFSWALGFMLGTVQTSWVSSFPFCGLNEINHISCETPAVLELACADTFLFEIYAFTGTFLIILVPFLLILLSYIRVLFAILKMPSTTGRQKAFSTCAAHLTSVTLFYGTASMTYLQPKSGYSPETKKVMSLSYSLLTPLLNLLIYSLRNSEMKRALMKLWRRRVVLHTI
Kind of experiment: Luciferase reporter gene assay, OR10A6 expressed in HEK293 cells. As to conditions: for Response of OR10A6 to the odor substance: fold increase of luciferase emission, 1 mM hexanoic acid or 300 μM nonanoic acid, or concentration series up to 1000 μM. In kind it is cell-based. The protocol:
as §1, §2, §3, §4
The inhibition ratios of the receptor response to test substances were calculated as follows. The emission value (Y) obtained from the cells in which the same receptors were introduced but no odor stimulation was conducted, was subtracted from the emission value derived from firefly luciferase (X) induced by odor stimulation with hexanoic acid alone. Similarly, the emission value (Y) obtained from the cells in which no odor stimulation was conducted, was subtracted from the emission value (Z) caused by stimulation with a mixture of hexanoic acid and a test substance. By the following calculation formula, the inhibitory activity of the test substance to receptor response was calculated based on the increment of the emission value (X−Y) caused by stimulation of hexanoic acid alone. Multiple independent experiments were performed in duplicate, and the average of each experiment was obtained. Inhibition ratio (%)={1−(Z−Y)/(X−Y)}×100

A short description of experiment [1]: Sensory evaluation test of hexanoic acid odor inhibition. In kind it is in vivo. The method, then:
Cotton balls were introduced into a glass bottle (Hakuyo Glass Co., Ltd. No. 11, capacity 110 ml), and hexanoic acid diluted 100 times with propylene glycol, nonanoic acid diluted 10 times with propylene glycol, or isovaleric acid diluted 1000 times with propylene glycol, as a malodor, and a test substance were added dropwise in an amount of […] to the cotton balls. The glass bottle was left to stand overnight at room temperature, and the odor molecules were sufficiently volatilized in the glass bottle. A sensory evaluation test was carried out by a panel of three panelists (5 panelists for isovaleric acid), and while the intensity of odor in the case of adding dropwise the malodor alone was rated as 5, the intensity of the malodor in the case of incorporating a test substance was evaluated on the basis of a system of 20 grades from 0 point to 10 points (0.5 points per grade).
Regarding the test substance, florhydral (Givaudan SA), bourgeonal (Givaudan SA), hydroxycitronellal (Givaudan SA, International Flavors & Fragrances, Inc., and the like), 4-isopropylcyclohexanecarbaldehyde (synthesized according to a method described in JP-A-2-188549), 4-(2-methoxyphenyl)-2-methyl-2-butanol (JP-A-9-111281), florosa (Givaudan SA), isocyclocitral (Givaudan SA, International Flavors & Fragrances, Inc., and the like), tripral (International Flavors & Fragrances, Inc.), and Pollenal II (Kao Corp.), which had been diluted 100 times with propylene glycol, were used for hexanoic acid; florhydral that had been diluted 10 times with propylene glycol was used for nonanoic acid; and florhydral that had been diluted 1000 times with propylene glycol was used for isovaleric acid.

Consider cresol [reference compound], for which the “Response of OR2W1 to the odor substance” value on OR2W1 is “do not respond”. Further, on OR51E1, the “Response of OR51E1 to the odor substance” value is given as “do not respond”. Further, the “Response of OR51L1 to the odor substance” value on OR51L1 was “do not respond”. On OR51I2, the “Response of OR51I2 to the odor substance” value is “do not respond”. Besides, the “Response of OR10A6 to the odor substance” value at OR10A6 was “do not respond”.
With `CC(C)CC1CC(C)(O)CCO1` (stereo not shown) [Florosa, tetrahydro-4-methyl-2-(2-methylpropyl)-2H-pyran-4-ol], the “Inhibition ratio of OR10A6 response” value at OR10A6 (response to hexanoic acid, test substance added together with hexanoic acid, HEK293) is 2 (Inhibition ratio: 20% to 50%). The compound also had an Intensity of odor in experiment [1] (hexanoic acid odor, malodor alone rated as 5, 0 to 10 points, test substance diluted 100 times with propylene glycol, three panelists) of 3.38. In addition, in experiment [1] (sensory test, test substance diluted 100 times with propylene glycol (FIG. 5, Table 4)), the “Inhibition of hexanoic acid odor (in words)” value is “inhibit the hexanoic acid odor”.
As to `CCCCCCCCC(=O)O` [nonanoic acid, reference compound], on OR2W1, the “Response of OR2W1 to the odor substance” value is recorded as “exhibited response”. Moreover, the “Response of OR51E1 to the odor substance” value on OR51E1 was “exhibited response”. For the same compound, the “Response of OR10A6 to the odor substance” value on OR10A6 is “exhibited response”.
For `CCCCCC(=O)O` [hexanoic acid, reference compound], the “Response of OR2W1 to the odor substance” value at OR2W1 is reported as “exhibited response; also recorded: concentration-dependent response”. In addition, the “Response of OR51E1 to the odor substance” value at OR51E1 was “exhibited response; also recorded: concentration-dependent response”. Moreover, at OR51L1, the “Response of OR51L1 to the odor substance” value is “exhibited response; also recorded: concentration-dependent response”. In addition, the “Response of OR51I2 to the odor substance” value at OR51I2 was “exhibited response; also recorded: concentration-dependent response”. Also, the “Response of OR10A6 to the odor substance” value on OR10A6 is reported as “exhibited response; also recorded: concentration-dependent response”.
